Here are results for one compound from BindingDB's records for doi:10.1021/acs.biochem.6b00943 (University of Maryland, 2017).

In this assay the target is Reverse transcriptase protein (Human immunodeficiency virus 1, UniProt Q9WJQ1). Put plainly: HIV-1 RT Inhibitory Assay. To be noted: 25 °C. The protocol:
The final pH of the reactions was 7.7. After extension for 3 min, the reactions were stopped by adding 12.5 μL of 2× gel loading buffer and the samples were resolved in a 16% denaturing polyacrylamide−7 M urea gel.

Structures are written as SMILES. Values joined by “and” are separate entries in the source; they are usually repeats but may differ in a detail not shown here. Identical values can stand only once.

As for `Cc1ccnc2c1NC(=O)c1cccnc1N2C1CC1` [BI-RG-587], the IC50 was 16 µM and 4.3 µM.

As a reminder, the IC50 is the point on the concentration scale where inhibition reaches its midpoint.
